Laboratory results taken from patent US10729691B2, “Treatment of infectious diseases with glucose uptake inhibitors” (Kadmon Corporation LLC, priority 2015, dated 2020).

system: P. falciparum-infected RBCs; test: Glycolysis IC50 / lactate excretion assay in P. falciparum-infected RBCs; type: cell-based; conditions: Plasmodium falciparum
Protocol: The cultures were harvested and DNA quantitated using the standard Sybr Green I fluorescence assay. […] The culture medium was harvested and extracellular lactic acid was quantified by LC-MS.
P. falciparum (HB-3 strain) cultures were maintained in standard culture conditions. […] Parasites were grown in O+ donor blood, 2% hematocrit.
Parasite cultures were seeded in 96-well plates (1% hematocrit, 1-2% starting parasitemia, 100 μL total volume) with varying concentrations of the test compounds in a final concentration of 0.1% DMSO. Plates were cultured for 48 hours before harvesting the culture medium for LC-MS analysis. At harvest, thin smears were taken and examined microscopically to observe any alterations in parasite morphology.
Culture medium samples were diluted in 9 volumes of methanol containing U-^13C-glucose and 1-^13C-lactate (final concentration 0.25 mM each). The samples were clarified by centrifugation at 13,000 RCF for 10 minutes. […] Mobile phase A was acetonitrile, and mobile phase B was 20 mM ammonium acetate (pH 9.4).
(§1) The sample was analyzed on an Exactive mass spectrometer (Thermo Scientific) to determine the chromatographic peak areas the analytes and internal standards. Glucose and lactate were quantified by taking the ratio of the unlabeled peak area to the area of the isotope-labeled standard.

Row | IC50 [nM] | Compound
1 | 101 to 250 | CC(C)NC(=O)COc1cccc(-c2nc(Nc3ccc4[nH]ncc4c3)c3sccc3n2)c1 [Example 3]
2 | 101 to 250 | O=C(COc1cccc(-c2nc3c(c(Nc4ccc(-c5cn[nH]c5)cc4)n2)COCC3)c1)NC1CCCC1 [Example 51, 2-(3-(4-((4-(1H-pyrazol-4-yl)phenyl)amino)-7,8-dihydro-5H-pyrano[4,3-d]pyrimidin-2-yl)phenoxy)-N-cyclopentylacetamide]
3 | 501 to 1000 | CC(=O)N1Cc2nc(-c3cccc(OCC(=O)NC(C)C)c3)nc(Nc3ccc(-c4cn[nH]c4)cc3)c2C1 [Example 54, 2-(3-(4-((4-(1H-pyrazol-4-yl)phenyl)amino)-6-acetyl-6,7-dihydro-5H-pyrrolo[3,4-d]pyrimidin-2-yl)phenoxy)-N-isopropylacetamide]
4 | 10 to 100 | CCC(CC)NC(=O)COc1cccc(-c2nc3c(c(Nc4ccc(-c5cn[nH]c5)cc4)n2)CN(C(C)=O)C3)c1 [Example 55, 2-(3-(4-((4-(1H-pyrazol-4-yl)phenyl)amino)-6-acetyl-6,7-dihydro-5H-pyrrolo[3,4-d]pyrimidin-2-yl)phenoxy)-N-(pentan-3-yl)acetamide]

The remaining lines, values behind:

Row | Compound | IC50 [nM]
5 | CCC(CC)NC(=O)COc1cccc(-c2nc3c(c(Nc4ccc(-c5cn[nH]c5)cc4)n2)CN(C(C)=O)CC3)c1 [Example 45, 2-(3-(4-((4-(1H-pyrazol-4-yl)phenyl)amino)-6-acetyl-5,6,7,8-tetrahydropyrido[4,3-d]pyrimidin-2-yl)phenoxy)-N-(pentan-3-yl)acetamide] | 10 to 100
6 | CC(C)CNC(=O)COc1cccc(-c2nc3c(c(Nc4ccc(-c5cn[nH]c5)cc4)n2)COCC3)c1 [Example 46, 2-(3-(4-((4-(1H-pyrazol-4-yl)phenyl)amino)-7,8-dihydro-5H-pyrano[4,3-d]pyrimidin-2-yl)phenoxy)-N-isobutylacetamide] | 10 to 100
7 | CC(C)(C)CNC(=O)COc1cccc(-c2nc3c(c(Nc4ccc(-c5cn[nH]c5)cc4)n2)COCC3)c1 [Example 47, 2-(3-(4-((4-(1H-pyrazol-4-yl)phenyl)amino)-7,8-dihydro-5H-pyrano[4,3-d]pyrimidin-2-yl)phenoxy)-N-neopentylacetamide] | 10 to 100
8 | CC(=O)N1CCc2nc(-c3cccc(OCC(=O)NC(C)(C)C)c3)nc(Nc3ccc(-c4cn[nH]c4)cc3)c2C1 [Example 48, 2-(3-(4-((4-(1H-pyrazol-4-yl)phenyl)amino)-6-acetyl-5,6,7,8-tetrahydropyrido[4,3-d]pyrimidin-2-yl)phenoxy)-N-(tert-butyl)acetamide] | 10 to 100
9 | O=C(COc1cccc(-c2nc3c(c(Nc4ccc(-c5cn[nH]c5)cc4)n2)COCC3)c1)NC1CCC1 [Example 52, 2-(3-(4-((4-(1H-pyrazol-4-yl)phenyl)amino)-7,8-dihydro-5H-pyrano[4,3-d]pyrimidin-2-yl)phenoxy)-N-cyclobutylacetamide] | 101 to 250
10 | CC(C)NC(=O)COc1cccc(-c2nc(Nc3ccc(-c4cn[nH]c4)cc3)c3cnccc3n2)c1 [Example 53, 2-(3-(4-((4-(1H-pyrazol-4-yl)phenyl)amino)pyrido[4,3-d]pyrimidin-2-yl)phenoxy)-N-isopropylacetamide] | 101 to 250
11 | CC(=O)N1Cc2nc(-c3cccc(OCC(=O)NC(C)(C)C)c3)nc(Nc3ccc(-c4cn[nH]c4)cc3)c2C1 [Example 56, 2-(3-(4-((4-(1H-pyrazol-4-yl)phenyl)amino)-6-acetyl-6,7-dihydro-5H-pyrrolo[3,4-d]pyrimidin-2-yl)phenoxy)-N-(tert-butyl)acetamide] | 101 to 250
12 | CC(=O)N1CCc2nc(-c3cccc(OCC(=O)NC4CCCC4)c3)nc(Nc3ccc(-c4cn[nH]c4)cc3)c2C1 [Example 57, 2-(3-(4-((4-(1H-pyrazol-4-yl)phenyl)amino)-6-acetyl-5,6,7,8-tetrahydropyrido[4,3-d]pyrimidin-2-yl)phenoxy)-N-cyclopentylacetamide] | 101 to 250
13 | CC(C)(C)NC(=O)COc1cccc(-c2nc(Nc3ccc(-c4cn[nH]c4)cc3)c3cnccc3n2)c1 [Example 58, 2-(3-(4-((4-(1H-pyrazol-4-yl)phenyl)amino)pyrido[4,3-d]pyrimidin-2-yl)phenoxy)-N-(tert-butyl)acetamide] | 101 to 250
14 | CC(=O)N1CCc2nc(-c3cccc(OCC(=O)NCC(C)C)c3)nc(Nc3ccc(-c4cn[nH]c4)cc3)c2C1 [Example 59, 2-(3-(4-((4-(1H-pyrazol-4-yl)phenyl)amino)-6-acetyl-5,6,7,8-tetrahydropyrido[4,3-d]pyrimidin-2-yl)phenoxy)-N-isobutylacetamide] | 101 to 250

system: P. falciparum (3D7 strain)-infected erythrocyte cultures; test: LC-MS metabolomics analysis of ATP levels in infected erythrocyte cultures; type: cell-based, Plasmodium falciparum; conditions: 2.5 uM compound
Protocol: The ATP levels of the infected cells are substantially depleted within 15 minutes of compound exposure and remain so for the duration of the experiment.
Cellular metabolite levels were determined in cultures that had been enriched for late stage (trophozoite/schizont)-infected erythrocytes by centrifuging a bulk culture suspension over a two-step Percoll gradient (65%/35% Percoll) at 1,500 RCF for 15 minutes and collecting the parasitized erythrocytes at the interface. 10 uL of packed cells were pelleted from the resulting cultures by centrifugation (500 RCF, 5 minutes), the culture medium removed by aspiration, and the cells extracted with 1.2 mL of 80% methanol/20% on dry ice. The first extraction was collected as the supernatant after centrifugation (1,000 RCF, 5 minutes) and the pellet extracted again with 0.3 mL of 80% methanol/20%. The two extracts were pooled, dried under nitrogen and resuspended in 200 uL of water prior to LC-MS analysis. […]
as §1

Row | Compound | time until ATP levels of the infected cells are substantially depleted [min]
15 | CC(C)NC(=O)COc1cccc(-c2nc(Nc3ccc4[nH]ncc4c3)c3sccc3n2)c1 [Example 3] | ≤ 15
